The values below come from patent US20170042916A1, “ANIMAL TISSUE COLONIZATION AND TREATMENT OF INFECTION” (priority 2014, published 2017).

For series [1], the system named is mixed bacterial/fungal infectious otitis externa and infectious dermatitis. The experiment in a line: Example 1: treatment of otitis externa and dermatitis in a Shih Tzu dog. Format: in vivo. Particulars: oral, four weeks, before treatment with the composition.
Excerpt: Conner's chest, neck, paws, and face were cleaned and treated twice daily with antimicrobial wipes (Douxo Chlorhexiding pads®) and an antimicrobial lotion (ResiKetoChlor®). The ears were cleaned once daily with a tris-EDTA/ketoconazole solution (TrizUltra plus Keto®) and treated twice daily with an amikacin otic preparation.
The animal had generalized mixed hypotrichosis/alopecia, erythema, hyperpigmentation, and lichenification with crusting over dorsal trunk, legs, paws, and ventrum. Hair on the face and neck was severely matted. The skin underlying the mats was crusted, with moist dermatitis and brown purulent exudate. Lymph node enlargement was palpated in the mandibular, prescapular, and popliteal node groups.
A generalized severe Malassezia (yeast) dermatitis was concentrated mostly on ventrum and paws. […] Fine-needle aspirates of peripheral lymph nodes (left prescapular and left popliteal) were consistent with reactive lymphadenopathy.
The otitis externa was treated initially by cleaning the ears with a salicylic acid based ear cleaner (Otoclean®) and instillation of 0.5 ml of the disclosed composition comprising Trihydroxy in each ear. Mats were removed and the dog was bathed and groomed over two days using (Splash plus® shampoo), followed by antimicrobial shampoo (Douxo Chlorhexidine® shampoo), followed by essential fatty acid cream rinse (Hylyt® cream rinse). […]
The nature of a further series: Stability in water. In kind it is physicochemical. The text has this: 3-(trimethoxysilyl) propyldimethyloctadecyl ammonium chloride (hereinafter also referred to as “Trimethoxy”) 104, is illustrated in FIG. 2 only as a precursor to the Trihydroxy molecule, when hydrolyzed by addition to water, shown in FIG. 1. […] Conventional methods of use of Trimethoxy 104 includes addition of a dilute solution in methanol to water. The EPA label required for Trimethoxy compounds states: “Danger. Corrosive. Causes irreversible eye damage and skin burns. Methanol may cause blindness. May be fatal if inhaled. May be harmful if swallowed or absorbed through the skin.”
The compound must then be used within a short period of time, such as a few hours to at most 12 hours, to treat a surface or fabric to produce a permanent surface coating.

For the compound amoxicillin/clavulanate, the “outcome of earlier conventional therapy” value in series [1] was “failed”.
Turning to `OC(Cn1cncn1)(Cn1cncn1)c1ccc(F)cc1F` [fluconazole], the “outcome of earlier conventional therapy” value in series [1] is “failed”.
In the case of `CCCCCCCCCCCCCCCCCC[N+](C)(C)CCC[Si](OC)(OC)OC.[Cl-]` [Trimethoxy, 3-(trimethoxysilyl) propyldimethyloctadecyl ammonium chloride], the stability in water result in “Stability in water” is on record as “unstable in water”.
On the same count and under the same terms, the value for `CCCCCCCCCCCCCCCCCC[N+](C)(C)CCC[Si](O)(O)O.[Cl-]` [Trihydroxy, 3-(trihydroxysilyl) propyldimethyloctadecyl ammonium chloride] was “stable with no other additives in water”.
